Experiments:
blackgrass [1] = test: Test Example 4: herbicidal effect by soil treatment (Table 19, symbol J); format: in vivo, blackgrass (Alopecurus myosuroides); conditions: 320 g/ha
Method in brief: (§1)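 Emulsion of test compound, water-diluted to predetermined amount, sprayed on soil after sowing (seed depth ~1.5 cm, sterilized diluvial soil). Greenhouse, 25–30° C. Effect graded at three weeks post-spray.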

barnyard grass [2] = test: Test Example 3: herbicidal effect by foliage application, Wagner pot (Table 18, symbol H); format: in vivo, barnyard grass (Echinochloa crus-galli); conditions: 320 g/ha
Method in brief: (§2)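 Plants were sown in alluvial soil held under 0.1–0.5 cm standing water and grown 14 days in a greenhouse at 25–30 °C. An emulsifiable formulation, water-diluted to the set dose, was then sprayed onto the foliage, and effects were scored three weeks later using previously defined criteria.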

lambsquarters [3] = test: Test Example 5: herbicidal effect by foliage application, plastic box (Table 20, symbol O); format: in vivo, lambsquarters (Chenopodium album); conditions: foliage application, 320 g/ha, evaluated three weeks after application
Method in brief: (§3)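 Post-emergence foliar test in sterilized diluvial soil. Compound applied as water-diluted emulsion at a predetermined rate to 14-day-old plants; evaluation at three weeks.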

green foxtail [4] = test: Test Example 5: herbicidal effect by foliage application, plastic box (Table 20, symbol G); format: in vivo, green foxtail (Setaria viridis); conditions: foliage application, 320 g/ha, evaluated three weeks after application
Method in brief: as §3

late watergrass = test: Test Example 2: herbicidal activity, application during weed generation under submerged conditions (Table 17, symbol A); format: in vivo, late watergrass (Echinochloa oryzicola); conditions: AAH 320 g/ha; application during weed generation, submerged conditions
Method in brief: (§4)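 In this pot test, flooded alluvial soil (water depth 4 cm) holds all three species sown as a mixture. Once seedlings have one to two leaves, the compound's emulsion, thinned with water to the intended dose, is poured on the water; grading follows after three weeks on the earlier criteria.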

redroot pigweed [5] = test: Test Example 4: herbicidal effect by soil treatment (Table 19, symbol N); format: in vivo, redroot pigweed (Amaranthus retroflexus); conditions: 320 g/ha
Method in brief: as §1

oval-leafed pondweed = test: Test Example 2: herbicidal activity, application during weed generation under submerged conditions (Table 17, symbol C); format: in vivo, oval-leafed pondweed (Monochoria vaginalis); conditions: AAH 320 g/ha; application during weed generation, submerged conditions
Method in brief: as §4

blackgrass [6] = test: Test Example 5: herbicidal effect by foliage application, plastic box (Table 20, symbol J); format: in vivo, blackgrass (Alopecurus myosuroides); conditions: foliage application, 320 g/ha, evaluated three weeks after application
Method in brief: as §3

velvetleaf [7] = test: Test Example 5: herbicidal effect by foliage application, plastic box (Table 20, symbol M); format: in vivo, velvetleaf (Abutilon theophrasti); conditions: foliage application, 320 g/ha, evaluated three weeks after application
Method in brief: as §3

windgrass [8] = test: Test Example 4: herbicidal effect by soil treatment (Table 19, symbol L); format: in vivo, windgrass (Apera spica-venti); conditions: 320 g/ha
Method in brief: as §1

rice flat sedge = test: Test Example 3: herbicidal effect by foliage application, Wagner pot (Table 18, symbol E); format: in vivo, rice flat sedge (Cyperus iria); conditions: 320 g/ha
Method in brief: as §2

persian speedwell [9] = test: Test Example 5: herbicidal effect by foliage application, plastic box (Table 20, symbol R); format: in vivo, Persian speedwell (Veronica persica); conditions: foliage application, 320 g/ha, evaluated three weeks after application
Method in brief: as §3

Chinese sprangletop = test: Test Example 3: herbicidal effect by foliage application, Wagner pot (Table 18, symbol D); format: in vivo, chinese sprangletop (Leptochloa chinensis); conditions: 320 g/ha
Method in brief: as §2

chickweed [10] = test: Test Example 4: herbicidal effect by soil treatment (Table 19, symbol P); format: in vivo, common chickweed (Stellaria media); conditions: 320 g/ha
Method in brief: as §1

barnyard grass [11] = test: Test Example 5: herbicidal effect by foliage application, plastic box (Table 20, symbol H); format: in vivo, barnyard grass (Echinochloa crus-galli); conditions: foliage application, 320 g/ha, evaluated three weeks after application
Method in brief: as §3

persian speedwell [12] = test: Test Example 4: herbicidal effect by soil treatment (Table 19, symbol R); format: in vivo, Persian speedwell (Veronica persica); conditions: 320 g/ha
Method in brief: as §1

southern crabgrass [13] = test: Test Example 5: herbicidal effect by foliage application, plastic box (Table 20, symbol F); format: in vivo, southern crabgrass (Digitaria ciliaris); conditions: foliage application, 320 g/ha, evaluated three weeks after application
Method in brief: as §3

chickweed [14] = test: Test Example 5: herbicidal effect by foliage application, plastic box (Table 20, symbol P); format: in vivo, common chickweed (Stellaria media); conditions: foliage application, 320 g/ha, evaluated three weeks after application
Method in brief: as §3

green foxtail [15] = test: Test Example 4: herbicidal effect by soil treatment (Table 19, symbol G); format: in vivo, green foxtail (Setaria viridis); conditions: 320 g/ha
Method in brief: as §1

southern crabgrass [16] = test: Test Example 4: herbicidal effect by soil treatment (Table 19, symbol F); format: in vivo, southern crabgrass (Digitaria ciliaris); conditions: 320 g/ha
Method in brief: as §1

wild oat [17] = test: Test Example 5: herbicidal effect by foliage application, plastic box (Table 20, symbol I); format: in vivo, wild oat (Avena fatua); conditions: foliage application, 320 g/ha, evaluated three weeks after application
Method in brief: as §3

Italian ryegrass [18] = test: Test Example 5: herbicidal effect by foliage application, plastic box (Table 20, symbol K); format: in vivo, Italian ryegrass (Lolium multiflorum); conditions: foliage application, 320 g/ha, evaluated three weeks after application
Method in brief: as §3

velvetleaf [19] = test: Test Example 4: herbicidal effect by soil treatment (Table 19, symbol M); format: in vivo, velvetleaf (Abutilon theophrasti); conditions: 320 g/ha
Method in brief: as §1

Italian ryegrass [20] = test: Test Example 4: herbicidal effect by soil treatment (Table 19, symbol K); format: in vivo, Italian ryegrass (Lolium multiflorum); conditions: 320 g/ha
Method in brief: as §1

lambsquarters [21] = test: Test Example 4: herbicidal effect by soil treatment (Table 19, symbol O); format: in vivo, lambsquarters (Chenopodium album); conditions: 320 g/ha
Method in brief: as §1

windgrass [22] = test: Test Example 5: herbicidal effect by foliage application, plastic box (Table 20, symbol L); format: in vivo, windgrass (Apera spica-venti); conditions: foliage application, 320 g/ha, evaluated three weeks after application
Method in brief: as §3

wild oat [23] = test: Test Example 4: herbicidal effect by soil treatment (Table 19, symbol I); format: in vivo, wild oat (Avena fatua); conditions: 320 g/ha
Method in brief: as §1

Japanese bulrush = test: Test Example 2: herbicidal activity, application during weed generation under submerged conditions (Table 17, symbol B); format: in vivo, Japanese bulrush (Schoenoplectus juncoides); conditions: AAH 320 g/ha; application during weed generation, submerged conditions
Method in brief: as §4

redroot pigweed [24] = test: Test Example 5: herbicidal effect by foliage application, plastic box (Table 20, symbol N); format: in vivo, redroot pigweed (Amaranthus retroflexus); conditions: foliage application, 320 g/ha, evaluated three weeks after application
Method in brief: as §3

barnyard grass [25] = test: Test Example 4: herbicidal effect by soil treatment (Table 19, symbol H); format: in vivo, barnyard grass (Echinochloa crus-galli); conditions: 320 g/ha
Method in brief: as §1

| SMILES | herbicidal effect rating, J: blackgrass (blackgrass [1]) | herbicidal effect on H (barnyard grass), rating 0-5 (barnyard grass [2]) | herbicidal effect on O: lambsquarters (lambsquarters [3]) | herbicidal effect on G: green foxtail (green foxtail [4]) | herbicidal effect rating, A: late watergrass (late watergrass) | herbicidal effect rating, N: redroot pigweed (redroot pigweed [5]) | herbicidal effect rating, C: oval-leafed pondweed (oval-leafed pondweed) | herbicidal effect on J: blackgrass (blackgrass [6]) | herbicidal effect on M: velvetleaf (velvetleaf [7]) | herbicidal effect rating, L: windgrass (windgrass [8]) | herbicidal effect on E (rice flat sedge), rating 0-5 (rice flat sedge) | herbicidal effect on R: persian speedwell (persian speedwell [9]) | herbicidal effect on D (Chinese sprangletop), rating 0-5 (Chinese sprangletop) | herbicidal effect rating, P: chickweed (chickweed [10]) | herbicidal effect on H: barnyard grass (barnyard grass [11]) | herbicidal effect rating, R: persian speedwell (persian speedwell [12]) | herbicidal effect on F: southern crabgrass (southern crabgrass [13]) | herbicidal effect on P: chickweed (chickweed [14]) | herbicidal effect rating, G: green foxtail (green foxtail [15]) | herbicidal effect rating, F: southern crabgrass (southern crabgrass [16]) | further results |
| --- | --- | --- | --- | --- | --- | --- | --- | --- | --- | --- | --- | --- | --- | --- | --- | --- | --- | --- | --- | --- | --- |
| CC(=O)COc1ccc(-c2sc3ccc(F)cc3c2-c2c(O)c(C)nn(C)c2=O)cc1 [2-068] | 0 (Herbicidal rate of 5% or less (almost no effect)) | 5 (Herbicidal rate of 90% or more (almost completely withered)) | 5 (Herbicidal rate of 90% or more (almost completely withered)) | 5 (Herbicidal rate of 90% or more (almost completely withered)) | 2 (Herbicidal rate of 20% or more and less than 40%) | 5 (Herbicidal rate of 90% or more (almost completely withered)) | 3 (Herbicidal rate of 40% or more and less than 70%) | 4 (Herbicidal rate of 70% or more and less than 90%) | 5 (Herbicidal rate of 90% or more (almost completely withered)) | 0 (Herbicidal rate of 5% or less (almost no effect)) | 5 (Herbicidal rate of 90% or more (almost completely withered)) | 5 (Herbicidal rate of 90% or more (almost completely withered)) | 4 (Herbicidal rate of 70% or more and less than 90%) | 0 (Herbicidal rate of 5% or less (almost no effect)) | 5 (Herbicidal rate of 90% or more (almost completely withered)) | 4 (Herbicidal rate of 70% or more and less than 90%) | 5 (Herbicidal rate of 90% or more (almost completely withered)) | 5 (Herbicidal rate of 90% or more (almost completely withered)) | 4 (Herbicidal rate of 70% or more and less than 90%) | 1 (Herbicidal rate of 5% or more and less than 20%) | herbicidal effect on I: wild oat (wild oat [17]): 4 (Herbicidal rate of 70% or more and less than 90%); herbicidal effect on K: Italian ryegrass (Italian ryegrass [18]): 3 (Herbicidal rate of 40% or more and less than 70%); herbicidal effect rating, M: velvetleaf (velvetleaf [19]): 5 (Herbicidal rate of 90% or more (almost completely withered)); herbicidal effect rating, K: Italian ryegrass (Italian ryegrass [20]): 0 (Herbicidal rate of 5% or less (almost no effect)); herbicidal effect rating, O: lambsquarters (lambsquarters [21]): 4 (Herbicidal rate of 70% or more and less than 90%); herbicidal effect on L: windgrass (windgrass [22]): 5 (Herbicidal rate of 90% or more (almost completely withered)); herbicidal effect rating, I: wild oat (wild oat [23]): 0 (Herbicidal rate of 5% or less (almost no effect)); herbicidal effect rating, B: Japanese bulrush (Japanese bulrush): 3 (Herbicidal rate of 40% or more and less than 70%); herbicidal effect on N: redroot pigweed (redroot pigweed [24]): 5 (Herbicidal rate of 90% or more (almost completely withered)); herbicidal effect rating, H: barnyard grass (barnyard grass [25]): 3 (Herbicidal rate of 40% or more and less than 70%) |
| Cc1nn(C)c(=O)c(-c2c(-c3ccc(OC4CCOC4)cc3)sc3ccc(F)cc23)c1O (stereo not drawn) [2-074] | 1 (Herbicidal rate of 5% or more and less than 20%) | 5 (Herbicidal rate of 90% or more (almost completely withered)) | 5 (Herbicidal rate of 90% or more (almost completely withered)) | 5 (Herbicidal rate of 90% or more (almost completely withered)) | 0 (Herbicidal rate of 5% or less (almost no effect)) | 5 (Herbicidal rate of 90% or more (almost completely withered)) | 0 (Herbicidal rate of 5% or less (almost no effect)) | 5 (Herbicidal rate of 90% or more (almost completely withered)) | 5 (Herbicidal rate of 90% or more (almost completely withered)) | 3 (Herbicidal rate of 40% or more and less than 70%) | 5 (Herbicidal rate of 90% or more (almost completely withered)) | 5 (Herbicidal rate of 90% or more (almost completely withered)) | 5 (Herbicidal rate of 90% or more (almost completely withered)) | 3 (Herbicidal rate of 40% or more and less than 70%) | 5 (Herbicidal rate of 90% or more (almost completely withered)) | 5 (Herbicidal rate of 90% or more (almost completely withered)) | 5 (Herbicidal rate of 90% or more (almost completely withered)) | 5 (Herbicidal rate of 90% or more (almost completely withered)) | 5 (Herbicidal rate of 90% or more (almost completely withered)) | 5 (Herbicidal rate of 90% or more (almost completely withered)) | herbicidal effect on I: wild oat (wild oat [17]): 4 (Herbicidal rate of 70% or more and less than 90%); herbicidal effect on K: Italian ryegrass (Italian ryegrass [18]): 4 (Herbicidal rate of 70% or more and less than 90%); herbicidal effect rating, M: velvetleaf (velvetleaf [19]): 3 (Herbicidal rate of 40% or more and less than 70%); herbicidal effect rating, K: Italian ryegrass (Italian ryegrass [20]): 3 (Herbicidal rate of 40% or more and less than 70%); herbicidal effect rating, O: lambsquarters (lambsquarters [21]): 5 (Herbicidal rate of 90% or more (almost completely withered)); herbicidal effect on L: windgrass (windgrass [22]): 5 (Herbicidal rate of 90% or more (almost completely withered)); herbicidal effect rating, I: wild oat (wild oat [23]): 0 (Herbicidal rate of 5% or less (almost no effect)); herbicidal effect rating, B: Japanese bulrush (Japanese bulrush): 3 (Herbicidal rate of 40% or more and less than 70%); herbicidal effect on N: redroot pigweed (redroot pigweed [24]): 5 (Herbicidal rate of 90% or more (almost completely withered)); herbicidal effect rating, H: barnyard grass (barnyard grass [25]): 5 (Herbicidal rate of 90% or more (almost completely withered)) |

Reference: US20230085307A1, “PYRIDAZINONE COMPOUND AND HERBICIDE” (NISSAN CHEMICAL CORPORATION, priority 2019, published 2023)
